Data from article PMC10065799, “High-throughput profiling of sequence recognition by tyrosine kinases and SH2 domains using bacterial peptide display” (eLife, 2023).

T1: c-Abl kinase domain (Mus musculus, UniProt P00520)
T1 sequence (P00520 242-493 limits assumed): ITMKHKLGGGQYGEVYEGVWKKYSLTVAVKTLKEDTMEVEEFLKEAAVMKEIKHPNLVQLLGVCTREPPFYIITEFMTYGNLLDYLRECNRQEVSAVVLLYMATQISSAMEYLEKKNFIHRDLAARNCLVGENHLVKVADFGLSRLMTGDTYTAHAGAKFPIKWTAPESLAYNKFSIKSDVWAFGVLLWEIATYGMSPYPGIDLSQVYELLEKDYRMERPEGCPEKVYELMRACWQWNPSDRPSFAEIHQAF


Tests used:
Fer kinase domain = assay: pTyr-Var library bacterial peptide display kinase screen (enrichment scores); format: biochemical, mouse; conditions: sheet "Fer";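 further: log2 fold change in enrichment of variant over reference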
c-Src kinase domain [1] = molecular target: T2, c-Src kinase domain (Homo sapiens, UniProt P12931); assay: as above; format: biochemical; conditions: sheet "Src"
EPHB2 kinase domain = assay: as above; format: biochemical, human; conditions: sheet EPHB2;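 further: log2 fold change in enrichment of variant over reference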
EPHB1 kinase domain = assay: as above; format: biochemical, human; conditions: for Screen: sheet EPHB1, effect of the variant peptide relative to its reference peptide in the pTyr-Var library screen (enrichment scores); for Screen (variant relative to reference peptide, measured in the pTyr-Var library screen): sheet "EPHB1", variant seq vs reference seq, bacterial peptide display enrichment
c-Abl kinase domain = molecular target: T1, c-Abl kinase domain; assay: as above; format: biochemical; conditions: sheet "Abl"; effect of variant peptide relative to its reference peptide in pTyr-Var library screen (enrichment);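 further: log2 fold change in enrichment of variant over reference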
c-Src kinase domain [2] = molecular target: T2, c-Src kinase domain; assay: ADP-Quest continuous fluorimetric kinase assay (Michaelis-Menten parameters and initial rates); format: biochemical
Source text: A fluorescence-based assay from Eurofins (ADP Quest) was used to measure the Michaelis-Menten kinetic parameters for phosphorylation of the consensus peptides by purified tyrosine kinase domains. In this assay, ADP production as a result of kinase activity is coupled to the production of resorufin, a fluorophore that emits signal at 590 nm. For all experiments, the assay reactions were set up as described in the provided assay kit protocol, in a 384 well plate format. The peptide solutions were serially diluted in 100 mM Tris, pH 8.0, and the kinases were diluted to 50 nM in buffer (10 mM HEPES, 100 mM NaCl, 1 mM TCEP, 5 mM MgCl2, 10% (v/v) glycerol). The final reaction mixtures contained 10 nM of kinase with 100 μM of ATP. Reactions were initiated with the addition of 1 mM ATP into a 50 μL reaction mixture for a final concentration of 100 μM ATP. Phosphorylation reaction progress was monitored by measuring fluorescence at excitation 530 nm and emission 590 nm every 2 min at 37 °C on a plate reader (BioTek Synergy Neo 2). The fluorescence units (RFU) were converted to μM ADP by comparison to a standard curve, and the initial rates were extracted from the linear regime of the reaction progress curves. Initial rates were also measured for samples containing each kinase but lacking a peptide substrate, to account for background ATP hydrolysis. This background rate was subtracted from the rates measured in the presence of peptide. The subtracted rates were plotted as a function of substrate concentration and fit to the Michaelis-Menten equation to extract kcat and KM values.

c-Src kinase domain [3] = molecular target: T2, c-Src kinase domain; assay: RP-HPLC assay to measure peptide phosphorylation kinetics; format: biochemical; conditions: purified peptide substrate
[4] = molecular target: human c-Src kinase domain (residues 260-528) (human) (UniProt P12931)
[5] = value of the variant peptide against its reference peptide in the pTyr-Var library screen with Fer
[6] = effect of the variant peptide relative to its reference peptide in the pTyr-Var library screen
[7] = effect of variant peptide relative to its reference peptide in the pTyr-Var library screen (enrichment scores)
[8] = variant peptide relative to its reference peptide, pTyr-Var library screen enrichment
[9] = variant peptide versus its reference peptide in the pTyr-Var library screen
[10] = effect of the variant relative to its reference peptide in the pTyr-Var library screen
[11] = ADP-Quest assay, c-Src kinase domain 10 nM, 100 μM ATP, 37 °C, three to five replicates, error = standard error of global Michaelis-Menten fit

Row | Molecule | Screen (Fer kinase domain; [5]) | Screen (EPHB2 kinase domain; [7]) | Screen (EPHB1 kinase domain) | Screen (c-Src kinase domain [1]; [9]) | other results
1 | IMNLLYHVVGW [GBA_Y412_T408M] | -0.4668 | -0.4774 | -0.2669 |  | Screen (c-Src kinase domain [1]; [6]): 0.1521
2 | DLHGIYQKLVI [TTN_Y21998_R21995H] |  |  |  | 0.02812 | Screen (Fer kinase domain; [8]): 0.5861; Screen (EPHB2 kinase domain; [10]): 1.178; Screen (variant relative to reference peptide, measured in the pTyr-Var library screen) (EPHB1 kinase domain): 1.244; Screen (c-Abl kinase domain): -2.013
3 | GNLLIYTEFGN [HGD_Y166_K171N] |  | 0.7326 | 0.6139 |  | Screen (c-Src kinase domain [1]; [6]): -0.3322
4 | PLDGEYFTLPI [TP53_Y327_Q331P] |  |  |  | 1.231 | Screen (Fer kinase domain; [8]): 0.4845; Screen (EPHB2 kinase domain; [10]): 3.847; Screen (variant relative to reference peptide, measured in the pTyr-Var library screen) (EPHB1 kinase domain): 3.664
5 | Ac-GPDEPIYEWWWIKKKG-NH2 [Fer Consensus, Fer consensus substrate peptide from X5-Y-X5 screen] |  |  |  |  | Km (c-Src kinase domain [2]; [11]): 8 ± 4 µM; kcat (c-Src kinase domain [2]; [11]): 0.4±0.1 s^–1; phosphorylation of consensus peptide by c-Src (initial rate relative to cognate consensus) (c-Src kinase domain [2]; low concentration: peptide 20 μM, kinase 10–50 nM, Figure 2—figure supplement 2): significant off-target activity
6 | TSSAVYMNLAS [GATAD2B_Y317_I316V] | -2.177 | -2.447 | -2.461 |  | Screen (c-Src kinase domain [1]; [6]): -0.9997
7 | Ac-SGDINYGQFAQ-NH2 [PLCG1_Y210_T209N, pTyr-Var library variant phosphosite peptide] |  |  |  | -3.177 | Phosphorylation Rate (c-Src kinase domain [3]): 0.307 s⁻¹
8 | HKDNNYISMWF [PAPOLG_Y432_V433I] | -1.378 | -1.118 | -1.294 |  | 
9 | MARDIYQASFF [LTK_Y672_R673Q_YF] | 3.102 | 1.961 | 2.318 |  | Screen (c-Src kinase domain [1]; [6]): 3.363
10 | KAPPTYDNVLQ [CYP3A4_Y347_T349N] | -0.1979 | -1.141 | -0.1539 |  | 
11 | PLFGEYFTLQI [TP53_Y327_D324Y_YF] |  |  |  | 1.11 | Screen (EPHB2 kinase domain; [10]): 0.9055; Screen (variant relative to reference peptide, measured in the pTyr-Var library screen) (EPHB1 kinase domain): 1.054
12 | QNTGFYFDLFG [PTPN11_Y62_D61Y_YF] |  | -4.029 | -3.875 | -1.182 | 
13 | HAVFIYDICHV [TWNK_Y508_V507I_YF] |  |  |  | -0.8811 | Screen (Fer kinase domain; [8]): 0.388; Screen (EPHB2 kinase domain; [10]): 1.461; Screen (variant relative to reference peptide, measured in the pTyr-Var library screen) (EPHB1 kinase domain): 1.032
14 | NSNSDYVDILP [SH2D1B_Y127_V130I] |  | 0.0762 |  |  | Screen (variant relative to reference peptide, measured in the pTyr-Var library screen) (EPHB1 kinase domain): -0.2012
15 | LDAFIYNAAVL [GRIN2A_Y730_D731N] | -3.433 | -1.324 | -1.471 |  | Screen (c-Src kinase domain [1]; [6]): -1.489
16 | QTPVLYAMLFH [MPZ_Y220_D224Y_YF] | -0.58 | -1.088 | -0.7178 |  | Screen (c-Src kinase domain [1]; [6]): -0.1434

Row | Molecule | Screen (Fer kinase domain; [5]) | Screen (EPHB2 kinase domain; [7]) | Screen (EPHB1 kinase domain) | Screen (c-Src kinase domain [1]; [9]) | other results
17 | PSAELYSFALP [PDGFRB_Y716_N718Y_YF] | 1.182 | 2.567 | 2.14 | 2.409 | 
18 | LPHVIYCRLWC [SMAD2_Y128_R133C] |  | 1.893 |  | 1.251 | Screen (variant relative to reference peptide, measured in the pTyr-Var library screen) (EPHB1 kinase domain): 2.05
19 | EPFELYCEMGS [CBL_Y371_Q367P_YF] |  | -0.2507 | -0.3443 |  | 
20 | FGSIMYEFVGK [SLC18A1_Y251_V249I] |  | -1.759 |  | -1.273 | Screen (Fer kinase domain; [8]): -0.674; Screen (variant relative to reference peptide, measured in the pTyr-Var library screen) (EPHB1 kinase domain): -1.716
21 | CEQELYSQLVF [WAS_Y102_W97C_YF] |  |  |  | -0.1333 | Screen (Fer kinase domain; [8]): -0.3985; Screen (EPHB2 kinase domain; [10]): -2.338; Screen (variant relative to reference peptide, measured in the pTyr-Var library screen) (EPHB1 kinase domain): -2.23; Screen (c-Abl kinase domain): -3.187
22 | PLDGEYFILQI [TP53_Y327_T329I] |  |  |  | -0.4119 | Screen (EPHB2 kinase domain; [10]): 0.5203; Screen (variant relative to reference peptide, measured in the pTyr-Var library screen) (EPHB1 kinase domain): 0.4645
23 | VATRWYWSPEL [CDKL5_Y177_R178W] |  | 2.978 | 3.423 |  | 
24 | ISKTWYSAEQF [CD207_Y217_P213S] |  | -0.7343 | -0.7306 |  | 
25 | SMEGLYSSAQD [CLIC5_Y111_T114A] | 0.3754 | -0.2512 | -0.2291 |  | Screen (c-Src kinase domain [1]; [6]): 0.03653
26 | KELALYDENWF [RPS19_Y48_P47L] |  | 4.277 | 4.03 |  | Screen (Fer kinase domain; [8]): 3.889
27 | LTERGYSFTTK [ACTG1_Y198_T203K] | 1.86 | 1.886 | 1.554 |  | 
28 | FAELVYTVFWH [ASS1_Y322_G324V] | -0.2764 | 0.0379 | 0.03348 |  | Screen (c-Src kinase domain [1]; [6]): 0.03298
29 | ADARMYGVHPW [PLP1_Y207_L210H] |  | -2.321 |  | -0.8602 | 
30 | LDVGEYCVPRG [BEX1_Y43_A40V] |  | -0.4602 | -0.3957 |  | 
31 | Ac-GPDEPIYEWWWIKKKG-NH2 [Fer Consensus peptide Ac-…-NH2] |  |  |  |  | KM (μM) of phosphorylation, Michaelis-Menten analysis, ADP-Quest assay [4]: 8 µM
